ChEMBL document CHEMBL4507318, “Data for DCP probe BAY-985” (2021)

Tests used:
[1] = test system: Tyrosine-protein kinase ABL1 (Homo sapiens), P00519 [Q252H]
[2] = test system: ALK tyrosine kinase receptor (Homo sapiens), Q9UM73 [C1156Y]
[3] = test system: ALK tyrosine kinase receptor (Homo sapiens), Q9UM73 [L1196M]
[4] = target: NUAK family SNF1-like kinase 1 (Homo sapiens) (UniProt O60285)
[5] = target: Tyrosine-protein kinase receptor UFO (Homo sapiens) (UniProt P30530)
[6] = target: Protein-tyrosine kinase 6 (Homo sapiens) (UniProt Q13882)
[7] = target: Cyclin-dependent kinase 13 (Homo sapiens) (UniProt Q14004)
[8] = target: Cyclin-dependent kinase-like 3 (Homo sapiens) (UniProt Q8IVW4)
[9] = target: Dual specificity protein kinase CLK2 (Homo sapiens) (UniProt P49760)
Chain of Dual specificity protein kinase CLK2 (Homo sapiens) (P49760 whole entry, looked up, the tested form may be a part): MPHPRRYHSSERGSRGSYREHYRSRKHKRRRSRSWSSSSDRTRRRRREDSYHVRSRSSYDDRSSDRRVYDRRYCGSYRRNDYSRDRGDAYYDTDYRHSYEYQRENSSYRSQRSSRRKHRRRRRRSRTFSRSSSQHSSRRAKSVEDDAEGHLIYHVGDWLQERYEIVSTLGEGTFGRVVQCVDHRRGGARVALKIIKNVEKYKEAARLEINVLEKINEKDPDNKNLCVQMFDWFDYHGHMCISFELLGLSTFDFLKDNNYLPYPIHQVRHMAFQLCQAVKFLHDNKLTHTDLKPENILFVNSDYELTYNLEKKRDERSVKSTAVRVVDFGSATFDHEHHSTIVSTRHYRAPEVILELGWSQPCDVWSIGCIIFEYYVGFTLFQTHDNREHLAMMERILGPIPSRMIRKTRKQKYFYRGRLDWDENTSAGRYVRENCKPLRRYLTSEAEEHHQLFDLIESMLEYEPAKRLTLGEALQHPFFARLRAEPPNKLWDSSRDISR

[10] = target: Epithelial discoidin domain-containing receptor 1 (Homo sapiens) (UniProt Q08345)
[11] = test system: Epidermal growth factor receptor (Homo sapiens), P00533 [UNDEFINED MUTATION]
Chain of Epidermal growth factor receptor (Homo sapiens), P00533 [UNDEFINED MUTATION] (P00533 whole entry, looked up, change not shown): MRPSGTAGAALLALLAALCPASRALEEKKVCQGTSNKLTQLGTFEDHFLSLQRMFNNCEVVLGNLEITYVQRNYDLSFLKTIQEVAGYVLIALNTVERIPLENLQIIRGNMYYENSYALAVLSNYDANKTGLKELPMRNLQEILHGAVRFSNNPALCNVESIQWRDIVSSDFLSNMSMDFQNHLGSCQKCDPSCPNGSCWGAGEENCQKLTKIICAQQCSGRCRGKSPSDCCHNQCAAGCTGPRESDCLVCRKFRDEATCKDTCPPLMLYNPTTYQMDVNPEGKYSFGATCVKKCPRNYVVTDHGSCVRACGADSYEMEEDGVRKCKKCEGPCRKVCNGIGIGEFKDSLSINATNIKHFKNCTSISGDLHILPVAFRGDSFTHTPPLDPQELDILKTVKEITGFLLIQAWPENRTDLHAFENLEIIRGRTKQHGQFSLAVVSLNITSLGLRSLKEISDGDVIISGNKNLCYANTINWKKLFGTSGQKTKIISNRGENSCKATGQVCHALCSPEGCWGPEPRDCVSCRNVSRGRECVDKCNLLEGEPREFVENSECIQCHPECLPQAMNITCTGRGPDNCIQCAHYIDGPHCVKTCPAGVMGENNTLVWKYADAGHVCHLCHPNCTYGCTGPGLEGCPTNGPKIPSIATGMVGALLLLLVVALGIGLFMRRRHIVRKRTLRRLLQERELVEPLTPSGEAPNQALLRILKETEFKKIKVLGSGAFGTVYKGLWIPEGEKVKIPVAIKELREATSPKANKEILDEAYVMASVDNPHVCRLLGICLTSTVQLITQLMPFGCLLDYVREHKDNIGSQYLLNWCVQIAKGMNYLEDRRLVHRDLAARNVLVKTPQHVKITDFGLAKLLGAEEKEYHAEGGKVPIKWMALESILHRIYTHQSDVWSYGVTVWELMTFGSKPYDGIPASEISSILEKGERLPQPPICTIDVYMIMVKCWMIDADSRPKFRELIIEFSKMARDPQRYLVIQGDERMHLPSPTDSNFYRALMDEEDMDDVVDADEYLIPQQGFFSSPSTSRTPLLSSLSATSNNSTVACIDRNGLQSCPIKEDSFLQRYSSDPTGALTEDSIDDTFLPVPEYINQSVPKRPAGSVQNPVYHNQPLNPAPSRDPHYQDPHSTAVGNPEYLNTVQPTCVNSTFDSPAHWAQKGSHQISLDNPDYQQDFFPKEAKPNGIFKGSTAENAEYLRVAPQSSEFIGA

[12] = test system: Epidermal growth factor receptor (Homo sapiens), P00533 [UNDEFINED MUTATION]; remark: listed apart in the source
[13] = test system: Epidermal growth factor receptor (Homo sapiens), P00533 [UNDEFINED MUTATION]; remark: listed apart in the source
[14] = test system: Epidermal growth factor receptor (Homo sapiens), P00533 [UNDEFINED MUTATION]; remark: listed apart in the source
[15] = target: Ephrin type-A receptor 2 (Homo sapiens) (UniProt P29317)
[16] = target: Ephrin type-B receptor 4 (Homo sapiens) (UniProt P54760)
[17] = target: Mitogen-activated protein kinase 3 (Homo sapiens) (UniProt P27361)
[18] = target: Tyrosine-protein kinase FRK (Homo sapiens) (UniProt P42685)
[19] = target: Tyrosine-protein kinase JAK2 (Homo sapiens) (UniProt O60674)
[20] = target: LIM domain kinase 1 (Homo sapiens) (UniProt P53667)
[21] = target: LIM domain kinase 2 (Homo sapiens) (UniProt P53671)
[22] = test system: Leucine-rich repeat serine/threonine-protein kinase 2 (Homo sapiens), Q5S007 [G2019S]
Chain of Leucine-rich repeat serine/threonine-protein kinase 2 (Homo sapiens), Q5S007 [G2019S] (Q5S007 whole entry G2019S): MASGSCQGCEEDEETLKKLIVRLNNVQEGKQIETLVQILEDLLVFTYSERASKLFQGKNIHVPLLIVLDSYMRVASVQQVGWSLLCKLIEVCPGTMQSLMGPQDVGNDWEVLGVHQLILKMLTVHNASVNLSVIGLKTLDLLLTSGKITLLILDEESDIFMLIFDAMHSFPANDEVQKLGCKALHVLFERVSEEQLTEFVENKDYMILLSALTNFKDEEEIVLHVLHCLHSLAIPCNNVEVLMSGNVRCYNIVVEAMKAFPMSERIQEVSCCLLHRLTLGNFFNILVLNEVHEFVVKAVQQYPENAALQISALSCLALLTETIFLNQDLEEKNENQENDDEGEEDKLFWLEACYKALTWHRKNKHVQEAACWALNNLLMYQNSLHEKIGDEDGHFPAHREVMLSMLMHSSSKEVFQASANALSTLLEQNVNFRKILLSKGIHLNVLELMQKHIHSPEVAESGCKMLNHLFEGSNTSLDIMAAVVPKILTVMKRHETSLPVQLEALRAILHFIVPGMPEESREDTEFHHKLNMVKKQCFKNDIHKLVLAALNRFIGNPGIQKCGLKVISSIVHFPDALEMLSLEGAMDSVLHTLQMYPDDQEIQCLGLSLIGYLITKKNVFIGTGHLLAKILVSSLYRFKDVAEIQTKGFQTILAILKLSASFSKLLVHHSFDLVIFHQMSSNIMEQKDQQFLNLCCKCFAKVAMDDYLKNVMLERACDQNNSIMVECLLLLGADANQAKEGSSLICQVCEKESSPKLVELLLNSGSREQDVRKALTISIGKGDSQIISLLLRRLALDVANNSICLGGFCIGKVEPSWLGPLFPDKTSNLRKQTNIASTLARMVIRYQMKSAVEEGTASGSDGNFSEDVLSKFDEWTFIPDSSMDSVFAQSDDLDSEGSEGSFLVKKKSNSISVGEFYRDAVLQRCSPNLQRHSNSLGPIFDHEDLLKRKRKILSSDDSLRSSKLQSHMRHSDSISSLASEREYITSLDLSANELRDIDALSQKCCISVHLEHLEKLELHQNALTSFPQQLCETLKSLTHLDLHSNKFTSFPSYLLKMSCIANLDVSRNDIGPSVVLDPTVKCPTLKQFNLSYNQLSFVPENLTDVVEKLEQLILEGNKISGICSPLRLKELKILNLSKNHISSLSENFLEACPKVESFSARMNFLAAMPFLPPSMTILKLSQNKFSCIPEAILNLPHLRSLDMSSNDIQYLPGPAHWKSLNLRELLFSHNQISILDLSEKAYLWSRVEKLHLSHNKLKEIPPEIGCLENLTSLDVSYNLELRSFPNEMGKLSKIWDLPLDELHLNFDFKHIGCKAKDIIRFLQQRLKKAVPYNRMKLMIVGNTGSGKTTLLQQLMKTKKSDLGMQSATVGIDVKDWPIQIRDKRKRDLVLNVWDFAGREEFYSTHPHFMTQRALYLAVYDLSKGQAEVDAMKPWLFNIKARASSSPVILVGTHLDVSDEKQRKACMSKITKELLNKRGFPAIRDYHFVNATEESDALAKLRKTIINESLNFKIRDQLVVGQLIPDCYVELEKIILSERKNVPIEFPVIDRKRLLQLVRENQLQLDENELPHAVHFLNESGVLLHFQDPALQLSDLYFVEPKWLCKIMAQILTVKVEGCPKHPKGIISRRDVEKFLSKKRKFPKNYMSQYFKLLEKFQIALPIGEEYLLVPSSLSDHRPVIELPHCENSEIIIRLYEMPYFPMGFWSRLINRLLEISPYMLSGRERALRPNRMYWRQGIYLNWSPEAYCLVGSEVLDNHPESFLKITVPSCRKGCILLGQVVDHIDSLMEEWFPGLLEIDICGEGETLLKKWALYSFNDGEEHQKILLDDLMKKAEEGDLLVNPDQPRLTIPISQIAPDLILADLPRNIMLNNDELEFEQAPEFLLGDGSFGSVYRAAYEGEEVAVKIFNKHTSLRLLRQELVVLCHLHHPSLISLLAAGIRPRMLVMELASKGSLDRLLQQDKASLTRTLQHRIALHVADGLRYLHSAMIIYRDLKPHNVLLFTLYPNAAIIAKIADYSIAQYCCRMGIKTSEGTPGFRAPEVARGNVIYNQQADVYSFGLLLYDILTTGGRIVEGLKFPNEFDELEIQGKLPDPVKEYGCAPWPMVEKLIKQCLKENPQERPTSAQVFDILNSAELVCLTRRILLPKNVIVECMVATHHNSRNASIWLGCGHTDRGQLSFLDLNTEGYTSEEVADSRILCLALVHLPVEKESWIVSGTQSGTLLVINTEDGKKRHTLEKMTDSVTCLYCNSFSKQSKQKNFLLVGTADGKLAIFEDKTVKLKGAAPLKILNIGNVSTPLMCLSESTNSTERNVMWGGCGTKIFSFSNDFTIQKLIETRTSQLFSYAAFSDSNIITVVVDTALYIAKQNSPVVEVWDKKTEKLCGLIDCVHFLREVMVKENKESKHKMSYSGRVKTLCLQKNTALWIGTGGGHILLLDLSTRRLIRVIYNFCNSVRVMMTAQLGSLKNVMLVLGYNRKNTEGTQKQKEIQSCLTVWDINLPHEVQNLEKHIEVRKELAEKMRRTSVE

[23] = target: Tyrosine-protein kinase Mer (Homo sapiens) (UniProt Q12866)
[24] = target: Serine/threonine-protein kinase MRCK alpha (Homo sapiens) (UniProt Q5VT25)
[25] = target: Serine/threonine-protein kinase OSR1 (Homo sapiens) (UniProt O95747)
[26] = target: Cyclin-dependent kinase 16 (Homo sapiens) (UniProt Q00536)
[27] = target: Cyclin-dependent kinase 15 (Homo sapiens) (UniProt Q96Q40)
[28] = test system: Phosphatidylinositol 4,5-bisphosphate 3-kinase catalytic subunit alpha isoform (Homo sapiens), P42336 [I800L]
[29] = test system: Phosphatidylinositol 4,5-bisphosphate 3-kinase catalytic subunit alpha isoform (Homo sapiens), P42336 [M1043I]
[30] = target: Phosphatidylinositol 4-kinase beta (Homo sapiens) (UniProt Q9UBF8)
[31] = target: Serine/threonine-protein kinase PknB (Mycobacterium tuberculosis) (UniProt P9WI81)
[32] = target: Protein kinase C eta type (Homo sapiens) (UniProt P24723)
[33] = target: Protein kinase C theta type (Homo sapiens) (UniProt Q04759)
[34] = target: Protein-tyrosine kinase 2-beta (Homo sapiens) (UniProt Q14289)
[35] = target: RAF proto-oncogene serine/threonine-protein kinase (Homo sapiens) (UniProt P04049)
[36] = target: Ribosomal protein S6 kinase alpha-5 (Homo sapiens) (UniProt O75582)
[37] = target: Serine/threonine-protein kinase SBK1 (Homo sapiens) (UniProt Q52WX2)
[38] = target: Mitogen-activated protein kinase kinase kinase 7 (Homo sapiens) (UniProt O43318)
[39] = target: Serine/threonine-protein kinase TBK1 (Homo sapiens) (UniProt Q9UHD2)
Chain of Serine/threonine-protein kinase TBK1 (Homo sapiens) (Q9UHD2 whole entry): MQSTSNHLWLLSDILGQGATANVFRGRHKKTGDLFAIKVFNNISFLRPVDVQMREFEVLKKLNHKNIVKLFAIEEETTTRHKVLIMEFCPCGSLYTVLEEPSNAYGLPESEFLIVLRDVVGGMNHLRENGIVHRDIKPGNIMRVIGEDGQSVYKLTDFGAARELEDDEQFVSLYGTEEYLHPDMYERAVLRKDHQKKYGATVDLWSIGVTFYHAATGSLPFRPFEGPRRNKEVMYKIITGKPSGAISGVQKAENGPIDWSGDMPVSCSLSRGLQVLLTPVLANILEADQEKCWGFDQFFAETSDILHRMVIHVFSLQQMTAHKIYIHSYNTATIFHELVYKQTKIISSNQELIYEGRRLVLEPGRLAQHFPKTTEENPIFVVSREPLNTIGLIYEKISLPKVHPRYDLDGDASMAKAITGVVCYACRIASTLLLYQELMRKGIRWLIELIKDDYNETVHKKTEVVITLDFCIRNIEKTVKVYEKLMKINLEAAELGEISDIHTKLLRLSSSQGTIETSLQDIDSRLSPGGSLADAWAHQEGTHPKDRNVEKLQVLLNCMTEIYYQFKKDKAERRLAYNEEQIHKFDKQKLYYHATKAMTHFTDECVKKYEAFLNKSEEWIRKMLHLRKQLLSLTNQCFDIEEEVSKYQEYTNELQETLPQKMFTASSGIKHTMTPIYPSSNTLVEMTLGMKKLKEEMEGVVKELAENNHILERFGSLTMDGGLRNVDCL

[40] = target: Serine/threonine-protein kinase VRK2 (Homo sapiens) (UniProt Q86Y07)
[41] = target: 5-hydroxytryptamine receptor 2C (Homo sapiens) (UniProt P28335); settings: Compound concentration 10.0 uM
[42] = target: 5-hydroxytryptamine receptor 6 (Homo sapiens) (UniProt P50406); settings: Compound concentration 10.0 uM
[43] = target: D(4) dopamine receptor (Homo sapiens) (UniProt P21917); settings: Compound concentration 10.0 uM
[44] = target: Kappa-type opioid receptor (Homo sapiens) (UniProt P41145); settings: Compound concentration 10.0 uM
[45] = organism: Rattus norvegicus; settings: Compound concentration 10.0 uM
[46] = target: Sigma intracellular receptor 2 (Homo sapiens, UniProt Q5BJF2); settings: Compound concentration 10.0 uM
[47] = Compound concentration 1000.0 nM
[48] = Compound concentration 100.0 nM

CN(C)c1ncnc(-c2ccc3nc(Nc4cc(CN5CCN(C(=O)CC(F)(F)F)CC5)ccn4)[nH]c3c2)c1Cl [BAY-440]
residual activity [1, 47]: 22%
residual activity [2, 47]: 59%
residual activity [3, 47]: 79%
residual activity [4, 47]: 100%
residual activity [5, 47]: 57%
residual activity [6, 47]: 86%
residual activity [7, 47]: 84%
residual activity [8, 47]: 86%
residual activity [9, 47]: 90%
residual activity [10, 47]: 75%
residual activity [11, 47]: 100%
residual activity [12, 47]: 100%
residual activity [13, 47]: 100%
residual activity [14, 47]: 88%
residual activity [15, 47]: 100%
residual activity [16, 47]: 100%
residual activity [17, 47]: 100%
residual activity [18, 47]: 85%
residual activity [19, 47]: 44%
residual activity [20, 47]: 100%
residual activity [21, 47]: 100%
residual activity [22, 47]: 69%
residual activity [23, 47]: 87%
residual activity [24, 47]: 100%
residual activity [25, 47]: 94%
residual activity [26, 47]: 74%
residual activity [27, 47]: 100%
residual activity [28, 47]: 35%
residual activity [29, 47]: 56%
residual activity [30, 47]: 100%
residual activity [31, 47]: 100%
residual activity [32, 47]: 100%
residual activity [33, 47]: 100%
residual activity [34, 47]: 85%
residual activity [35, 47]: 100%
residual activity [36, 47]: 100%
residual activity [37, 47]: 71%
residual activity [38, 47]: 74%
residual activity [39, 47]: 24%
residual activity [40, 47]: 88%
inhibition [41]: 0.02%
inhibition [42]: 12.4%
inhibition [43]: 7.18%
inhibition [44]: 33.7%
inhibition [45]: 13.9%
inhibition [46]: 68.1%

C[C@H](c1ccnc(Nc2nc3ccc(-c4cc(N(C)C)ncn4)cc3[nH]2)c1)N1CCN(C(=O)CC(F)(F)F)CC1 [BAY-985]
residual activity [1, 48]: 94%
residual activity [2, 48]: 100%
residual activity [3, 48]: 100%
residual activity [4, 48]: 93%
residual activity [5, 48]: 100%
residual activity [6, 48]: 85%
residual activity [7, 48]: 100%
residual activity [8, 48]: 86%
residual activity [9, 48]: 65%
residual activity [10, 48]: 100%
residual activity [11, 48]: 96%
residual activity [12, 48]: 89%
residual activity [13, 48]: 69%
residual activity [14, 48]: 96%
residual activity [15, 48]: 100%
residual activity [16, 48]: 100%
residual activity [17, 48]: 89%
residual activity [18, 48]: 92%
residual activity [19, 48]: 100%
residual activity [20, 48]: 100%
residual activity [21, 48]: 88%
residual activity [22, 48]: 100%
residual activity [23, 48]: 97%
residual activity [24, 48]: 99%
residual activity [25, 48]: 100%
residual activity [26, 48]: 100%
residual activity [27, 48]: 100%
residual activity [28, 48]: 100%
residual activity [29, 48]: 84%
residual activity [30, 48]: 100%
residual activity [31, 48]: 91%
residual activity [32, 48]: 84%
residual activity [33, 48]: 100%
residual activity [34, 48]: 91%
residual activity [35, 48]: 97%
residual activity [36, 48]: 88%
residual activity [37, 48]: 85%
residual activity [38, 48]: 85%
residual activity [39, 48]: 2.4%
residual activity [40, 48]: 94%
inhibition [41]: 11.4%
inhibition [42]: -4.38%
inhibition [43]: 8.17%
inhibition [44]: 4.24%
inhibition [45]: -2.73%
inhibition [46]: 54.1%
